Experiments:
isolated pig islets = test: Glucose-induced insulin secretion from isolated pig islets, static incubation with pharmacological PKC/PKA activators; format: cell-based; settings: 2 h, PMA 20 nM and/or forskolin 1 μM
Method: FIG. 1 is a histogram showing the insulin secretion from adult and neonate isolated pig islets. […] Insulin secretion was measured in the incubation media and expressed as a percentage of total insulin content of each batch of islets. The numbers above the columns represent the fold increase of insulin secretion in test groups compared to 15 mM glucose alone. * p<0.05. […] Finally, insulin was quantified in recovered media and in incubated islets by radioimmuno-assay.

adult pig islets = test: Dynamic islet perifusion, glucose-induced insulin secretion of virus-treated adult pig islets; format: cell-based; settings: adenoviral vector MOI 200, 48 h, perifused G1 then 30 min G15
Method: FIG. 4 is a graph showing the insulin secretion of isolated adult pig islets exposed to 200 MOI viral expression vectors carrying sequences coding for GLP-1 (GLP-1 Ser8), activated muscarinic receptor (M3R) or both (GLP-1+M3R) during 48 hours. Batches of 600 islets were perifused in krebs medium containing 1 mM glucose (G1) then 15 mM glucose (G15) as indicated on top of the figure. Insulin secretion was then measured in the effluent fractions. Values are means±SEM for n=3-4 from 4 different preparations.
The effect of transgenic PKA and PKC activation on glucose-induced insulin secretion was also tested during dynamic islet perifusion experiments. Control and virus-treated adult islets were placed in perifusion chambers sealed with 0.2 μm filters. Islets were first perifused with 1 mM glucose (G1) krebs medium during 30 minutes for equilibrium then during 10 minutes in G1 with media collection every 2 minutes followed by 30 minutes stimulation with G15.

MIN6 cells = test: Glucose-induced insulin secretion from transfected MIN6 cells, static incubation; format: cell-based, murine; settings: MIN6 cells 48 h after plasmid transfection; 2 h in 1 or 15 mM glucose; control cells 2.2
Method: FIG. 2 is a histogram showing glucose-induced insulin secretion from transfected Min6 cells incubated with 1 (G1) or 15 mM (G15) glucose. The numbers above pairs of columns represent the stimulation ratio (G15/G1) in each group. * p<0.05 indicates significant difference between test groups and controls. Values are means±SEM for n=15-21 from 7 different experiments.
To verify the effect of the transgenic proteins on insulin secretion, transfected and control MIN6 cells were challenged by an increase of glucose concentration during static incubation experiments. Insulin secretion was measured and the stimulation index i.e., the ratio between insulin secretion at high glucose and insulin secretion at low glucose, of transgenic and control cells was calculated. In brief, 2·10^5 cells were seeded in 12-well plates and cultivated for 48 h before they were transfected with one the plasmids carrying the GLP-1 (7-37) gene (GLP-1), the mutated GLP-1 (7-A8S-37) gene (GLP-1 Ser8) or the constitutively activated muscarinic receptor gene (M3). Control cells were simply exposed to Lipofectamine without any plasmidic DNA. 48 h after transfection, cells were starved then incubated for 2 h in a 1 mL Krebs-Ringer buffer containing either 1 or 15 mM glucose. Insulin secretion was measured in the incubation media and expressed as a percentage of total insulin content of the cells.

Compound	fold increase of insulin secretion compared to 15 mM glucose alone (isolated pig islets; islets from adult pigs)	fold increase of insulin secretion compared to 15 mM glucose alone (isolated pig islets; islets from neonate pigs)	effect on acute glucose-induced insulin secretion during perifusion, in words (adult pig islets)	stimulation index (insulin secretion G15/G1) (MIN6 cells)
CCCCCCCCCCCCCC(=O)O[C@@H]1[C@@H](C)[C@@]2(O)[C@@H](C=C(CO)C[C@]3(O)C(=O)C(C)=C[C@@H]23)[C@@H]2C(C)(C)[C@]12OC(C)=O [PMA, phorbol myristate acetate]	2 fold	up to 8 fold	–	–
GLP-1	–	–	virtually no effect	2.6
